# Values of other authors, collected in patent US20230310429A1, “FORMULATIONS FOR REDUCING HAIR LOSS AND/OR INCREASING HAIR REGROWTH” (TRIPLE HAIR INC., priority 2020, published 2023).
# Like-named read-outs stand apart in the source and are kept apart here.
# Tests used:
# [1] = not given; remark: listed apart in the source
# regrowth of the hair = details: topical
# [2] = not given; remark: listed apart in the source
# [3] = system: prostaglandin endoperoxide synthase-1 (PGHS-1); details: oxygen consumption in PGE2 production; Michelet et al. 1997
SMILES,solubility (in words) (0.1N HCl),solubility (in words) (0.1N NaOH),solubility (in words) (DMSO),solubility (in words) (chloroform),solubility (in words) (ethanol),solubility (in words) (methanol),solubility (in words) (n-propanol),solubility (in words) (polyethylene glycol 400),solubility (in words) (propylene glycol),solubility (in words) (water),solubility (in words) (acetone),solubility (in words) (acetonitrile),solubility (in words) (ethyl acetate),solubility (in words) (isopropanol),solubility (in words) (octanol),other adverse effects ([1]; in vivo),side effect on periocular hair and eyelashes ([1]; ophthalmic use),effective in promoting regrowth of the hair (regrowth of the hair),pKa [2],activation of purified PGHS-1 [3]
"CC(C)(C)NC(=O)[C@H]1CC[C@H]2[C@@H]3CC[C@H]4NC(=O)C=C[C@]4(C)[C@H]3CC[C@]12C [Finasteride, ((5α,17β)-N-(1,1-Dimethylethyl)-3-oxo-4-azaandrost-1-ene-17-carboxamide)]",very slightly soluble,very slightly soluble,freely soluble,freely soluble,freely soluble,freely soluble,freely soluble,sparingly soluble,sparingly soluble,not soluble,,,,,,,,,,
CC(C)OC(=O)CCC/C=C\C[C@@H]1[C@@H](CC[C@@H](O)CCc2ccccc2)[C@H](O)C[C@@H]1O [Latanoprost],,,,,freely soluble,freely soluble,,,,practically insoluble,freely soluble,very soluble,freely soluble,freely soluble,freely soluble,"erythema, folliculitis, sensation of burning and erysipelas",augmentation of periocular hirsuteness,,,
"Nc1cc(N2CCCCC2)nc(N)[n+]1[O-] [Minoxidil, (6-(1-pipedidinyl)-2,4-pyrimidinediamine 3-oxide)]",,,,,,,,,,,,,,,,,,less than 40%,4.61,potent activator
